This is an account of results in patent US11090292B2, “Compositions and methods of use of an inappetance-controlling compound” (Aratana Therapeutics, Inc., priority 2012, dated 2021).

Experiment [1] relates to cortisol. Put plainly: Example 1: serum cortisol concentration. It is filed as in vivo, Beagle dogs. To be noted: approximately 0.5 h post treatment, days 1, 2 and 7. On the procedure:
A controlled, seven-day study was performed to assess the impact of different capromorelin-dosing regimens on the production of insulin-like growth factor 1 (hereinafter “IGF-1”), growth hormone (hereinafter “GH”), and cortisol. The different capromorelin-dosing regimens were also assessed for the impact on food intake and changes in body mass.
Eighteen adult non-naïve Beagle dogs (nine males and nine females) were divided into one of three treatment groups. Each of the three treatment groups included three males and three females. Group A, which was the control group, was dosed twice per day, via oral gavage, with a vehicle (deionized water alone) and was used as a baseline data point for comparison against the active treatment regimens. Group B comprised an active treatment group that received two treatments per day, via oral gavage, with a capromorelin-containing composition with a concentration of 3 mg/kg capromorelin per treatment. Finally, Group C comprised an active treatment group that received one treatment per day, via oral gavage, with a capromorelin-containing composition with a concentration of 6 mg/kg capromorelin per treatment.
During the ten day study period, on an at least once-daily basis, each of the dogs was monitored for clinical observations, mortality, morbidity, body mass, and food consumption. […]

The subject of experiment [2] is cortisol. Put plainly: Example 5: serum cortisol. In kind it is in vivo, Beagle dogs. Particulars: Groups 2-4; mitigated by Day 4, further reduced by Day 7. How it is done: In order to further refine the dosing regimen that would provide an appropriate blood profile of capromorelin and desired results from the perspective of increased food intake and weight gain, an additional series of experiments were conducted. In these experiments, twenty-four adult (male and female) Beagle dogs weighing approximately 9 to 13 kilograms were randomly divided into four groups. Group 1 received a placebo formulation, without any active compound, two times per day; Group 2 received a composition comprising 3 mg/kg of body weight of capromorelin one time per day; Group 3 received a composition comprising 4.5 mg/kg of body weight of capromorelin one time per day; and Group 4 received a composition comprising 3 mg/kg of body weight of capromorelin two times per day. […]
In these experiments, the animals were orally administered the flavored formulation at approximately 8:00 AM and, for Group 4 only, again at 6:00 PM. […] Food consumption was calculated and recorded on Days −7 through Day 7. Baseline food consumption was calculated for each individual dog as the average number of grams of food consumed on Days −3, −2, and −1. The study period food consumption was calculated for each individual dog as the average of Days 1 through 7. […]

The subject of experiment [3] is cortisol. Put plainly: Example 9: serum cortisol concentration. It is filed as in vivo, cats. Particulars: day 4. How it is done: A four-day study was performed to further assess the pharmacokinetics of formulation 8 from Example 3 (i.e., the most “well-accepted” formulation) in cats. Moreover, the administration of formulation 8 was also analyzed to determine if administration of this formulation could induce sustained production of IGF-1 and relatively depressed, mitigated, or lower levels of cortisol. The different capromorelin-dosing regimens were also assessed for the impact on food intake and changes in body mass.
Twenty-four adult cats were divided into one of four treatment groups, with all four groups as active treatment groups. Each of the active treatment groups included 6 cats. The first group received a sterile injection of a capromorelin composition containing a 0.75 mg/kg concentration of capromorelin once per day during the four-day experiment. The second group received a once-daily sterile injection of a capromorelin composition at a concentration of 2 mg/kg. The third group received a once-daily dose of a capromorelin composition at a concentration of 2 mg/kg, via oral gavage. […]
During the seven day study period, on an at least once-daily basis, each of the cats was monitored for clinical observations, mortality, moribundity, body mass, acceptability/palatability, and food consumption. […]

Experiment [4] in a line: Example 4 seven-day study once vs twice daily 3 mg/kg: food consumption and body weight. It is filed as in vivo, Beagle dogs. On the procedure:
A controlled, seven-day study was performed to assess the impact of different capromorelin-dosing regimens on the production of IGF-1, GH, and cortisol. The different capromorelin-dosing regimens were also assessed for the impact on food intake and changes in body mass.
[…] were divided into one of three treatment groups, with one negative control group and two active treatment groups. Each of the three treatment groups included three males and three females. The first group received a placebo formulation (i.e., deionized water) twice per day, via oral gavage. The second group received a once-daily dose of the capromorelin composition at a concentration of 3 mg/kg, via oral gavage. The third group received a twice-daily dose of the capromorelin composition at a concentration of 3 mg/kg, via oral gavage.
During the ten day study period, on an at least once-daily basis, each of the dogs was monitored for clinical observations, mortality, moribundity, body mass, acceptability/palatability, and food consumption. Serum samples were taken to measure capromorelin concentration, GH concentration, IGF-1 concentration, and cortisol concentration. Serum samples were taken on days 1, 2, 4, and 7 at −15 minutes (pre-dose), immediately prior to dosing (0 minutes) and 30, 45, 60, 90, 120, 240, 360, and/or 480 minutes post dosing. […]

Turning to `CN1N=C2CCN(C(=O)[C@@H](COCc3ccccc3)NC(=O)C(C)(C)N)C[C@@]2(Cc2ccccc2)C1=O.O=C(O)C(O)C(O)C(=O)O` [capromorelin], the “cortisol concentrations in the serum relative to deionized water” value in the experiment on cortisol [1] is “increased”. The “cortisol in the serum” value with cortisol [2] is listed as “initial increase in cortisol in the serum on Day 1”. The “increases in cortisol serum levels relative to day 1” value in the experiment with cortisol [3] is given as “mitigated on day 4”. The “weight loss over the course of the experiment” value in experiment [4] (once-daily 3 mg/kg oral gavage) is “did not experience weight loss or did not experience as great a weight loss as the negative control”. Further, the “average more food consumed daily relative to the negative control” value in experiment [4] (once-daily and twice-daily 3 mg/kg oral gavage, 7 days) is recorded as “approximately 34%”.
